Results taken from PubChem BioAssay (NCI).
Where “and” joins values, the source holds several entries; their conditions need not be identical. Equal values may be shown once.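 Cells were grown in 96-well plates and exposed to each compound for 48 hours at five concentrations; endpoints were interpolated linearly between bracketing concentrations, or set to the highest concentration if not reached. GI50 marks 50% less growth. TGI marks complete inhibition of growth.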

Columns and labels:
Assay in all cases: NCI-60 cell line screen, 48 h
[1] = test system: K-562 leukemia
[2] = test system: SF-268 CNS
[3] = test system: SNB-19 CNS
[4] = test system: HOP-92 NSCLC
[5] = test system: CAKI-1 renal
[6] = test system: SF-539 CNS
[7] = test system: SK-MEL-5 melanoma
[8] = test system: HOP-62 NSCLC
[9] = test system: EKVX NSCLC
[10] = test system: SF-295 CNS
[11] = test system: DMS 273 small cell lung
[12] = test system: LOX IMVI melanoma
[13] = test system: KM12 colon
[14] = test system: M14 melanoma
[15] = test system: DLD-1 colon
[16] = test system: UO-31 renal
[17] = test system: OVCAR-8 ovarian
[18] = test system: UACC-62 melanoma
[19] = test system: SK-MEL-2 melanoma
[20] = test system: M19-MEL melanoma
[21] = test system: HOP-18 NSCLC
[22] = test system: 786-0 renal
[23] = test system: IGROV1 ovarian
[24] = test system: XF 498 CNS
[25] = test system: TK-10 renal
[26] = test system: MDA-MB-435
[27] = test system: U251 CNS
[28] = test system: A549 NSCLC
[29] = test system: HCC-2998 colon
[30] = test system: SK-MEL-28 melanoma
[31] = test system: HCT-15 colon
[32] = test system: UACC-257 melanoma
[33] = test system: SNB-75 CNS
[34] = test system: SK-OV-3 ovarian
[35] = test system: SN12C renal
[36] = test system: NCI-H23 lung
[37] = test system: HL-60(TB) leukemia
[38] = test system: RXF 393 renal
[39] = test system: SNB-78 CNS
[40] = test system: DMS 114 small cell lung
[41] = test system: MOLT-4 leukemia
[42] = test system: ACHN renal
[43] = test system: OVCAR-4 ovarian
[44] = test system: MALME-3M melanoma
[45] = test system: CCRF-CEM leukemia
[46] = test system: NCI-H460 lung
[47] = test system: DU-145 prostate
[48] = test system: OVCAR-3 ovarian
[49] = test system: NCI/ADR-RES ovarian
[50] = test system: HS 578T breast
[51] = test system: LXFL 529 NSCLC
[52] = test system: SW-620 colon
[53] = test system: T-47D breast
[54] = test system: RPMI-8226 leukemia
[55] = test system: PC-3 prostate
[56] = test system: MDA-N
[57] = test system: HCT-116 colon
[58] = test system: MCF7 breast
[59] = test system: SR leukemia
[60] = test system: HT29 colon
[61] = test system: MDA-MB-231 breast
[62] = test system: A498 renal
[63] = test system: OVCAR-5 ovarian
[64] = test system: BT-549 breast
[65] = test system: COLO 205 colon
[66] = test system: NCI-H226 lung
[67] = test system: NCI-H522 lung

With `CO/C1=C\C(C)=C\C(C)C(O)C(C)C/C(C)=C/C=C/C(OC)C(C(C)C(O)C(C)C2(O)CC(O)C(C)C(C(C)C)O2)OC1=O` (centres undefined) the TGI [1] was 13.7 µM, the TGI [2] was 19.5 µM and the TGI [3] was 24.9 µM. The TGI [4] was 0.0225 µM, the GI50 [5] was 0.021 µM and the TGI [5] was 9.89 µM. It also gave a TGI [6] of 0.0827 µM, a TGI [7] of 0.00177 µM and a TGI [8] of 0.000847 µM. The TGI [9] was 4.93 µM, the TGI [10] was 0.0215 µM and 0.0198 µM and the TGI [11] was 0.0107 µM and 0.0233 µM. For the same compound, the TGI [12] was 0.0264 nM, the TGI [13] was 15 µM and the TGI [14] was 0.00127 µM. For the same compound, the TGI [15] was 21.7 µM, the TGI [16] was 0.0587 µM and 0.0234 µM and the TGI [17] was 10.4 µM. For the same compound, the TGI [18] was 0.00785 µM and 0.0254 µM, the TGI [19] was 0.0141 µM and 0.0178 µM and the TGI [20] was 3.12 µM. It also gave a TGI [21] of 21.9 µM, a TGI [22] of 10.4 µM and a TGI [23] of 23.7 µM. The GI50 [24] was 0.0122 µM, the TGI [24] was 0.0849 µM and 0.0294 µM and the TGI [25] was 29.5 µM. The TGI [26] was 0.0042 µM, the TGI [27] was 17 µM and the TGI [28] was 0.0222 µM and 0.0105 µM. It also gave a TGI [29] of 12.2 µM, a TGI [30] of 23.5 µM and a TGI [31] of 11.2 µM. The GI50 [32] was 0.0248 µM, the TGI [32] was 0.0699 µM and 0.0653 µM and the GI50 [33] was 0.0396 µM. For the same compound, the TGI [34] was 33.6 µM, the TGI [35] was 17.6 µM and the TGI [36] was 15 µM. For the same compound, the TGI [37] was 0.0136 µM, the GI50 [38] was 11.1 µM and the TGI [39] was 25 µM. The TGI [40] was 10.3 µM, the TGI [41] was 11.7 µM and the TGI [42] was 13.2 µM. The TGI [43] was 15.6 µM, the GI50 [44] was 0.0237 µM and the TGI [44] was 0.0914 µM and 0.0629 µM.

In the case of `Cn1ccn2c3nc4ccccc4nc3c(=O)c(C#N)c12`, the TGI [45] is reported as over 100 µM, the TGI [1] is reported as over 100 µM and the TGI [2] is reported as over 100 µM. For the same compound, the TGI [3] was over 100 µM, the TGI [4] was over 100 µM and the TGI [5] was over 100 µM. It also gave a TGI [46] of over 100 µM, a TGI [6] of over 100 µM and a TGI [7] of over 13.4 µM. For the same compound, the TGI [47] was over 100 µM, the TGI [48] was over 100 µM and the TGI [9] was over 100 µM. It also gave a TGI [10] of over 100 µM, a TGI [11] of over 100 µM and a TGI [12] of over 100000 nM. It also gave a TGI [49] of over 81.8 µM, a TGI [50] of over 100 µM and a TGI [51] of over 100 µM. For the same compound, the TGI [13] was over 100 µM, the TGI [52] was over 100 µM and the TGI [14] was over 100 µM. The TGI [15] was over 100 µM, the TGI [16] was over 100 µM and the TGI [17] was over 100 µM. It also gave a TGI [18] of over 100 µM, a TGI [53] of over 100 µM and a TGI [19] of over 100 µM. It also gave a TGI [20] of over 100 µM, a TGI [21] of over 100 µM and a TGI [22] of over 89.9 µM. The TGI [23] was over 100 µM, the TGI [24] was over 100 µM and the TGI [25] was over 100 µM. The TGI [26] was over 100 µM, the TGI [27] was over 100 µM and the TGI [54] was over 100 µM. It also gave a TGI [28] of over 100 µM, a TGI [29] of over 100 µM and a TGI [55] of over 100 µM. The TGI [30] was over 100 µM, the TGI [31] was over 100 µM and the TGI [56] was over 100 µM. For the same compound, the TGI [57] was over 100 µM, the TGI [32] was over 100 µM and the TGI [33] was over 100 µM. The TGI [58] was over 100 µM, the TGI [34] was over 100 µM and the TGI [59] was over 100 µM. For the same compound, the TGI [35] was over 100 µM, the TGI [36] was over 100 µM and the TGI [60] was over 100 µM. For the same compound, the TGI [61] was over 100 µM, the TGI [37] was over 100 µM and the TGI [62] was over 100 µM. It also gave a TGI [63] of over 100 µM, a TGI [38] of over 100 µM and a TGI [64] of over 100 µM. The TGI [65] was over 100 µM, the TGI [39] was over 100 µM and the TGI [40] was over 100 µM. For the same compound, the TGI [41] was over 100 µM, the TGI [66] was over 100 µM and the TGI [42] was over 100 µM. The TGI [43] was over 100 µM, the TGI [67] was over 100 µM and the TGI [44] was over 100 µM.
